What was measured:
Assay in all cases: 3' UTR reporter interaction score (median-centred robust z-score of log2 firefly/Renilla activity); higher = less repression of the 3' UTR reporter
Conditions in all cases: HEK293T; 48 h
[1] = tested on: ZEB2
Outline: (§1)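 HEK293T cells (10,000/well, 96-well plates) were co-transfected using DharmaFECT Duo with 100 ng firefly luc2P reporter carrying the gene's 3' UTR, 20 ng Renilla pRL-TK control and 2.5 pmol miRNA mimic. Dual-luciferase activities were read 48 h post-transfection. The interaction score is the log-transformed firefly/Renilla ratio as a per-plate robust z-score (median, median absolute deviation), median-centred per miRNA and averaged over at least two independent screens; more negative indicates interaction.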

[2] = tested on: RB1
Outline: as §1

[3] = tested on: PHOX2B
Outline: as §1

[4] = tested on: MYB
Outline: as §1

[5] = tested on: FBXW7
Outline: as §1

[6] = tested on: PHF6
Outline: as §1

[7] = tested on: MYC
Outline: as §1

[8] = tested on: EZH2
Outline: as §1

[9] = tested on: HRAS
Outline: as §1

[10] = tested on: TP53
Outline: as §1

[11] = tested on: MYT1L
Outline: as §1

[12] = tested on: BRCA2
Outline: as §1

[13] = tested on: NOTCH1
Outline: as §1

[14] = tested on: MYCN
Outline: as §1

Row | Sequence | 3' UTR reporter interaction score [1] | 3' UTR reporter interaction score [2] | 3' UTR reporter interaction score [3] | 3' UTR reporter interaction score [4] | 3' UTR reporter interaction score [5] | 3' UTR reporter interaction score [6] | 3' UTR reporter interaction score [7] | 3' UTR reporter interaction score [8] | 3' UTR reporter interaction score [9] | 3' UTR reporter interaction score [10] | 3' UTR reporter interaction score [11] | 3' UTR reporter interaction score [12] | 3' UTR reporter interaction score [13] | 3' UTR reporter interaction score [14]
1 | UCCCUGAGACCCUUUAACCUGUG | 0.152 | 0.0838 | -2.78 | -0.228 | -0.449 | 1.62 | 0.131 | 1.1 | 1.12 | -3.91 | 0.364 | 0.772 | -0.719 | -0.334
2 | UCCCUGUCCUCCAGGAGCUCA | -0.151 | -0.85 | -1.29 | 0.312 | 0.105 | -1.54 | 0.568 | 0.643 | 0.998 | 0.159 | -0.918 | -0.604 | -0.622 | 0.194
3 | UCCGAGCCUGGGUCUCCCUCU | -0.318 | 0.559 | 1.22 | -0.402 | 0.832 | -0.194 | -0.43 | 0.213 | -0.0807 | 0.107 | 1.66 | 0.0314 | 0.141 | -0.731
4 | UCCGUCUCAGUUACUUUAUAGCC | -2.24 | 0.307 | -0.906 | -1.75 | -1.56 | 2.5 | 0.0204 | 0.571 | -0.357 | 1.13 | -0.738 | 1.46 | -0.0124 | -0.29
5 | UCCUGUACUGAGCUGCCCCGAG | -2.27 | -2.81 | 1.42 | -1.33 | 0.155 | -0.91 | -0.142 | 0.519 | 0.706 | -0.164 | -1.49 | -2.39 | -0.221 | 0.364
6 | UCCUUCAUUCCACCGGAGUCUG | -2.53 | 0.813 | -0.547 | 1.93 | -0.512 | 0.83 | 1.16 | 0.832 | -1.28 | -0.464 | 1.34 | -0.488 | -0.263 | 0.466
7 | UCGGAUCCGUCUGAGCUUGGCU | 0.123 | -0.185 | -0.526 | -4.97 | 0.968 | -0.555 | -0.287 | 1.84 | 1.22 | -0.412 | -1.06 | 1.24 | 0.076 | 1.3
8 | UCGGGGAUCAUCAUGUCACGAG | 1.06 | 1.06 | 0.234 | -0.226 | 0.568 | 1.52 | -1.16 | -0.077 | -0.912 | -0.0214 | -0.88 | 0.268 | -0.696 | -0.0751
9 | UCGUACCGUGAGUAAUAAUGC | 0.34 | -1.12 | -1.05 | -2.72 | -0.162 | 1.63 | -0.268 | 0.753 | -0.495 | 0.516 | -0.417 | 0.63 | -1.54 | 0.512

Source: the supplement of paper PMC5844555
